Results from the supplement of paper PMC10307832.

Legend:
Assay in all cases: relative viability (nuclei count vs DMSO), 5 days (fraction); higher = more cells survive
A-427 = system: A-427
Outline: (§1)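 For relative viability, nuclei counts in treated wells were divided by those in vehicle wells. Lung cancer cell lines had been pin-tool dosed in 1536-well plates the day after seeding and cultured for 5 days, then fixed and stained in one step (final 0.05% Triton X-100, 1% formaldehyde, 1 ug/ml Hoechst) and imaged at 4×. Doses were one drug alone or a fixed anchor-drug dose plus five library-drug doses (not always all listed) in √10 steps, and values are duplicate-plate medians.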

ABC-1 = system: ABC-1
Outline: as §1

EMC-BAC-2 = system: EMC-BAC-2
Outline: as §1

HARA = system: HARA
Outline: as §1

HOP-62 = system: HOP-62
Outline: as §1

LK-2 = system: LK-2
Outline: as §1

LXF-289 = system: LXF-289
Outline: as §1

NCI-H1944 = system: NCI-H1944
Outline: as §1

NCI-H1993 = system: NCI-H1993
Outline: as §1

NCI-H2009 = system: NCI-H2009
Outline: as §1

NCI-H2170 = system: NCI-H2170
Outline: as §1

NCI-H2228 = system: NCI-H2228
Outline: as §1

NCI-H3122 = system: NCI-H3122
Outline: as §1

NCI-H322M = system: NCI-H322M
Outline: as §1

NCI-H522 = system: NCI-H522
Outline: as §1

NCI-H596 = system: NCI-H596
Outline: as §1

NCI-H727 = system: NCI-H727
Outline: as §1

PC-3 [JPC-3] = system: PC-3 [JPC-3]
Outline: as §1

SK-MES-1 = system: SK-MES-1
Outline: as §1

SW 1573 = system: SW 1573
Outline: as §1

SW 900 = system: SW 900
Outline: as §1

COc1cc2nccc(Oc3ccc(NC(=O)Nc4cc(C)on4)c(Cl)c3)c2cc1OC [Tivozanib] + Cc1cc(Nc2cc(N3CCN(C)CC3)nc(Sc3ccc(NC(=O)C4CC4)cc3)n2)n[nH]1 [Tozasertib] (partner 0.1 µM) gave a relative viability (A-427; first compound 0.005 µM) of 0.179, a relative viability (A-427; first compound 0.01581 µM) of 0.23 and a relative viability (A-427; first compound 0.05 µM) of 0.251. The relative viability (A-427; first compound 0.1581 µM) was 0.281, the relative viability (A-427; first compound 0.5 µM) was 0.207 and the relative viability (ABC-1; first compound 0.005 µM) was 0.167. The relative viability (ABC-1; first compound 0.01581 µM) was 0.185, the relative viability (ABC-1; first compound 0.05 µM) was 0.188 and the relative viability (ABC-1; first compound 0.1581 µM) was 0.159. The relative viability (ABC-1; first compound 0.5 µM) was 0.168, the relative viability (EMC-BAC-2; first compound 0.005 µM) was 0.255 and the relative viability (EMC-BAC-2; first compound 0.01581 µM) was 0.3. It also gave a relative viability (EMC-BAC-2; first compound 0.05 µM) of 0.295, a relative viability (EMC-BAC-2; first compound 0.1581 µM) of 0.326 and a relative viability (EMC-BAC-2; first compound 0.5 µM) of 0.266. It also gave a relative viability (HARA; first compound 0.005 µM) of 0.113, a relative viability (HARA; first compound 0.01581 µM) of 0.107 and a relative viability (HARA; first compound 0.05 µM) of 0.112. For the same compound, the relative viability (HARA; first compound 0.1581 µM) was 0.133, the relative viability (HARA; first compound 0.5 µM) was 0.145 and the relative viability (HOP-62; first compound 0.005 µM) was 0.349. It also gave a relative viability (HOP-62; first compound 0.01581 µM) of 0.384, a relative viability (HOP-62; first compound 0.05 µM) of 0.422 and a relative viability (HOP-62; first compound 0.1581 µM) of 0.391. It also gave a relative viability (HOP-62; first compound 0.5 µM) of 0.362, a relative viability (LK-2; first compound 0.005 µM) of 0.173 and a relative viability (LK-2; first compound 0.01581 µM) of 0.175. It also gave a relative viability (LK-2; first compound 0.05 µM) of 0.159, a relative viability (LK-2; first compound 0.1581 µM) of 0.172 and a relative viability (LK-2; first compound 0.5 µM) of 0.177. It also gave a relative viability (LXF-289; first compound 0.005 µM) of 0.173, a relative viability (LXF-289; first compound 0.01581 µM) of 0.201 and a relative viability (LXF-289; first compound 0.05 µM) of 0.228. For the same compound, the relative viability (LXF-289; first compound 0.1581 µM) was 0.272, the relative viability (LXF-289; first compound 0.5 µM) was 0.23 and the relative viability (NCI-H1944; first compound 0.005 µM) was 0.251. For the same compound, the relative viability (NCI-H1944; first compound 0.01581 µM) was 0.245, the relative viability (NCI-H1944; first compound 0.05 µM) was 0.257 and the relative viability (NCI-H1944; first compound 0.1581 µM) was 0.269. It also gave a relative viability (NCI-H1944; first compound 0.5 µM) of 0.297, a relative viability (NCI-H1993; first compound 0.005 µM) of 0.559 and a relative viability (NCI-H1993; first compound 0.01581 µM) of 0.585. For the same compound, the relative viability (NCI-H1993; first compound 0.05 µM) was 0.568, the relative viability (NCI-H1993; first compound 0.1581 µM) was 0.485 and the relative viability (NCI-H1993; first compound 0.5 µM) was 0.513. For the same compound, the relative viability (NCI-H2009; first compound 0.005 µM) was 0.708, the relative viability (NCI-H2009; first compound 0.01581 µM) was 0.738 and the relative viability (NCI-H2009; first compound 0.05 µM) was 0.733. It also gave a relative viability (NCI-H2009; first compound 0.1581 µM) of 0.725, a relative viability (NCI-H2009; first compound 0.5 µM) of 0.759 and a relative viability (NCI-H2170; first compound 0.005 µM) of 0.673. It also gave a relative viability (NCI-H2170; first compound 0.01581 µM) of 0.685, a relative viability (NCI-H2170; first compound 0.05 µM) of 0.801 and a relative viability (NCI-H2170; first compound 0.1581 µM) of 0.671. It also gave a relative viability (NCI-H2170; first compound 0.5 µM) of 0.784, a relative viability (NCI-H2228; first compound 0.005 µM) of 0.232 and a relative viability (NCI-H2228; first compound 0.01581 µM) of 0.235. For the same compound, the relative viability (NCI-H2228; first compound 0.05 µM) was 0.25, the relative viability (NCI-H2228; first compound 0.1581 µM) was 0.26 and the relative viability (NCI-H2228; first compound 0.5 µM) was 0.274. The relative viability (NCI-H3122; first compound 0.005 µM) was 0.418, the relative viability (NCI-H3122; first compound 0.01581 µM) was 0.428 and the relative viability (NCI-H3122; first compound 0.05 µM) was 0.468. The relative viability (NCI-H3122; first compound 0.1581 µM) was 0.586, the relative viability (NCI-H3122; first compound 0.5 µM) was 0.253 and the relative viability (NCI-H322M; first compound 0.005 µM) was 0.455. For the same compound, the relative viability (NCI-H322M; first compound 0.01581 µM) was 0.48, the relative viability (NCI-H322M; first compound 0.05 µM) was 0.518 and the relative viability (NCI-H322M; first compound 0.1581 µM) was 0.395. It also gave a relative viability (NCI-H322M; first compound 0.5 µM) of 0.479, a relative viability (NCI-H522; first compound 0.005 µM) of 0.581 and a relative viability (NCI-H522; first compound 0.01581 µM) of 0.553. For the same compound, the relative viability (NCI-H522; first compound 0.05 µM) was 0.581, the relative viability (NCI-H522; first compound 0.1581 µM) was 0.536 and the relative viability (NCI-H522; first compound 0.5 µM) was 0.577. For the same compound, the relative viability (NCI-H596; first compound 0.005 µM) was 0.873, the relative viability (NCI-H596; first compound 0.01581 µM) was 0.888 and the relative viability (NCI-H596; first compound 0.05 µM) was 0.939. It also gave a relative viability (NCI-H596; first compound 0.5 µM) of 0.885, a relative viability (NCI-H727; first compound 0.005 µM) of 0.533 and a relative viability (NCI-H727; first compound 0.01581 µM) of 0.649. It also gave a relative viability (NCI-H727; first compound 0.05 µM) of 0.588, a relative viability (NCI-H727; first compound 0.1581 µM) of 0.635 and a relative viability (NCI-H727; first compound 0.5 µM) of 0.886. It also gave a relative viability (PC-3 [JPC-3]; first compound 0.005 µM) of 0.802, a relative viability (PC-3 [JPC-3]; first compound 0.01581 µM) of 0.869 and a relative viability (PC-3 [JPC-3]; first compound 0.05 µM) of 0.94. The relative viability (PC-3 [JPC-3]; first compound 0.1581 µM) was 0.77, the relative viability (PC-3 [JPC-3]; first compound 0.5 µM) was 0.837 and the relative viability (SK-MES-1; first compound 0.005 µM) was 0.801. The relative viability (SK-MES-1; first compound 0.01581 µM) was 0.888, the relative viability (SK-MES-1; first compound 0.05 µM) was 0.98 and the relative viability (SK-MES-1; first compound 0.1581 µM) was 0.901. The relative viability (SK-MES-1; first compound 0.5 µM) was 0.789, the relative viability (SW 1573; first compound 0.005 µM) was 0.165 and the relative viability (SW 1573; first compound 0.01581 µM) was 0.17. For the same compound, the relative viability (SW 1573; first compound 0.05 µM) was 0.198, the relative viability (SW 1573; first compound 0.1581 µM) was 0.205 and the relative viability (SW 1573; first compound 0.5 µM) was 0.38. For the same compound, the relative viability (SW 900; first compound 0.005 µM) was 0.624, the relative viability (SW 900; first compound 0.01581 µM) was 0.626 and the relative viability (SW 900; first compound 0.05 µM) was 0.606. For the same compound, the relative viability (SW 900; first compound 0.1581 µM) was 0.637 and the relative viability (SW 900; first compound 0.5 µM) was 0.565.
